Measured values from ChEMBL document CHEMBL2202954, “The effect of PLC-γ2 inhibitors on the growth of human tumour cells” (2012).

How the values were obtained:
Type in all cases: functional
[1] = tested on: UACC-257; test: Cytotoxicity against human UACC257 cells assessed as cellular growth at 10 uM by SRB assay
[2] = tested on: HT-29; test: Cytotoxicity against human HT-29 cells assessed as cellular growth at 10 uM by SRB assay
[3] = tested on: RPMI-8226; test: Cytotoxicity against human RPMI8226 cells assessed as cellular growth at 10 uM by SRB assay
[4] = tested on: SNB-75; test: Cytotoxicity against human SNB75 cells assessed as cellular growth at 10 uM by SRB assay
[5] = tested on: HCT-15; test: Cytotoxicity against human HCT15 cells assessed as cellular growth at 10 uM by SRB assay
[6] = tested on: OVCAR-5; test: Cytotoxicity against human OVCAR5 cells assessed as cellular growth at 10 uM by SRB assay
[7] = tested on: NCI-H322M; test: Cytotoxicity against human NCI-H322M cells assessed as cellular growth at 10 uM by SRB assay
[8] = tested on: SF-268; test: Cytotoxicity against human SF268 cells assessed as cellular growth at 10 uM by SRB assay
[9] = tested on: 786-0; test: Cytotoxicity against human 786-0 cells assessed as cellular growth at 10 uM by SRB assay
[10] = tested on: KM12; test: Cytotoxicity against human KM12 cells assessed as cellular growth at 10 uM by SRB assay
[11] = tested on: PC-3; test: Cytotoxicity against human PC3 cells assessed as cellular growth at 10 uM by SRB assay
[12] = tested on: MDA-MB-468; test: Cytotoxicity against human MDA-MB-468 cells assessed as cellular growth at 10 uM by SRB assay
[13] = tested on: HOP-62; test: Cytotoxicity against human HOP62 cells assessed as cellular growth at 10 uM by SRB assay
[14] = tested on: NCI-H522; test: Cytotoxicity against human NCI-H522 cells assessed as cellular growth at 10 uM by SRB assay
[15] = tested on: MDA-MB-435; test: Cytotoxicity against human MDA-MB-435 cells assessed as cellular growth at 10 uM by SRB assay
[16] = tested on: UACC-62; test: Cytotoxicity against human UACC62 cells assessed as cellular growth at 10 uM by SRB assay
[17] = tested on: SR; test: Cytotoxicity against human SR cells assessed as cellular growth at 10 uM by SRB assay
[18] = tested on: LOX IMVI; test: Cytotoxicity against human LOXIMVI cells assessed as cellular growth at 10 uM by SRB assay
[19] = tested on: OVCAR-4; test: Cytotoxicity against human OVCAR4 cells assessed as cellular growth at 10 uM by SRB assay

| SMILES | Activity [1] | Activity [2] | Activity [3] | Activity [4] | Activity [5] | Activity [6] | Activity [7] | Activity [8] | Activity [9] | Activity [10] | Activity [11] | Activity [12] | Activity [13] | Activity [14] | Activity [15] | Activity [16] | Activity [17] | Activity [18] | Activity [19] |
| --- | --- | --- | --- | --- | --- | --- | --- | --- | --- | --- | --- | --- | --- | --- | --- | --- | --- | --- | --- |
| Cc1cc(C)c(NC(=O)c2sc3nc4c(cc3c2N)C(=O)CC(C)(C)C4)c(C)c1 | 101.32% | 96.21% | 90.56% | 105.78% | 96.97% | 100.8% | 115.34% | 115.09% | 103.33% | 112.78% | 87.69% | 85.24% | 111.49% | 100.45% | 97.97% | 96.9% | 103.93% |  |  |
| COc1ccc2nc(NC(=O)c3ccc(F)cc3)sc2c1 | 97.45% | 90.2% | 87.06% | 109.5% | 85.45% | 97.79% | 75.75% | 106.57% | 96.69% | 93.29% | 88.31% | 102.55% | 108.23% | 75.43% | 96.73% | 88.71% | 104.31% | 102.03% |  |
| O=c1/c(=C/c2ccccc2)sc2nc(-c3ccc(Cl)cc3Cl)nn12 | 83.86% |  | 111.72% | 80.26% | 112.75% |  | 131.46% | 107.58% | 111.75% | 114.89% | 115.99% | 120.34% | 95.63% | 99.33% | 119.04% | 103% |  | 96.37% |  |
| O=C(NCc1ccc(Cl)cc1)c1[nH]c2ccccc2c1Cl | 117.15% | 108.03% | 90.9% | 94.33% | 103.64% | 116.56% | 113.2% | 105.1% | 106.78% | 95.16% | 87.3% | 106.81% | 101.61% | 103.35% | 103.29% | 96.15% |  | 95.45% | 100.82% |
| Clc1ccc(-c2nc(-c3cccs3)no2)c(Cl)c1 | 76.15% |  | 86.03% | 63.47% | 73.54% |  | 120.06% | 99.25% | 97.42% | 99.27% | 83.22% | 8.37% | 84.92% | 91.42% | 110.83% | 88.98% |  | 103.49% |  |
| Cc1cccc(-c2nc(-c3cccs3)no2)c1 | 93.98% | 98.29% | 92.97% | 85.75% | 83.75% |  | 95.9% | 112.75% | 93.47% | 104.19% | 80.3% | 40.25% | 79.48% | 90.03% | 110.16% | 86.85% | 93.72% | 95.98% |  |
| COc1ccc(Cl)cc1C(=O)Nc1nc2ccc(Cl)cc2s1 | 101.95% | 109.45% | 80.55% | 74.28% | 86.52% | 124.2% | 85.62% | 83.22% | 75.8% | 94.77% | 84.45% | 76.66% | 89.42% | 99.37% | 97.59% | 91.53% | 87.67% | 81.24% |  |
